Measurements: US20210169953A1, “COMPOSITION FOR TYPE IV ALLERGY” (SONE FARM CO., LTD, priority 2018, published 2021)
Where “and” joins values, the source holds several entries; their conditions need not be identical. Identical values can stand only once.

Tested on: picryl chloride-induced mouse contact dermatitis model
Test: Suppression action on mouse contact dermatitis model by application on the auricle (auricle thickness)
Assay type: in vivo, mouse (male BALB/cA Jcl)
Experimental: From the supernatant of a culture broth obtained by cultivating the strain IJH-SONE68 in modified-SDM medium, exopolysaccharides produced by the strain were purified by the method disclosed in Example 2 to be supplied to experiments (1 mg/mL). The same concentration was used for a dipotassium glycyrrhizinate aqueous solution used as a control of an existing anti-inflammatory drug.
The mice used were male BALB/cA Jcl mice (7-week old at the time of arrival, CLEA Japan, Inc.). Five mice were housed in a breeding cage and bred in an animal breeding room in which environment was adjusted to temperature of 20 to 26° C., humidity of 40 to 60%, and lighting time of 12 hours (8:00 to 20:00). The mice were allowed to freely ingest solid feed MF (Oriental Yeast Co., Ltd.). In addition, with regard to a drinking water, the mice were allowed to freely ingest a purified water.
After carried in the cage, the mice were acclimated for 7 days. […]
On Day 6, the thickness of right auricle of the mice was measured in advance with a caliper, and then an allergic reaction was induced by applying 20 μL of a 1 w/v % picryl chloride solution on the front and back of the right auricle. […] Eighteen hours later (Day 7), the thickness of the auricle was measured, and the difference before and after the induction (A auricle thickness [mm]) was compared among the groups. […] Tukey's test or t test by Welch's method was used for a significant difference test among the groups, and it was determined that there was a significant difference when a risk factor (p value) was less than 0.05.

CC1(C)[C@@H](O[C@H]2O[C@H](C(=O)[O-])[C@@H](O)[C@H](O)[C@H]2O[C@@H]2O[C@H](C(=O)[O-])[C@@H](O)[C@H](O)[C@H]2O)CC[C@]2(C)[C@H]3C(=O)C=C4[C@@H]5C[C@@](C)(C(=O)O)CC[C@]5(C)CC[C@@]4(C)[C@]3(C)CC[C@@H]12.[K+].[K+] [dipotassium glycyrrhizinate]
Increase in auricle thickness due to inflammation vs control group (FIG. 7, Tukey test) (application, p<0.1): tended to be suppressed | Increased amount of auricle thickness, Average (group average, 20 μL of 1 mg/mL sample applied on right auricle 2 h after induction, measured 18 h later, control 0.28): 0.184 mm | Increased amount of auricle thickness, each mouse (individual mice, 20 μL of 1 mg/mL sample applied on right auricle 2 h after induction, measured 18 h later): 0.20 mm and 0.06 mm and 0.22 mm (3×)
